# The source made the active and inactive calls.
# Biological target: Cytochrome P450 3A4 (Homo sapiens, UniProt P08684);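 note: confirmatory qHTS run detecting inhibitors and substrates of CYP3A4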
# Details: Potency
# Sequence of Cytochrome P450 3A4 (P08684 whole entry): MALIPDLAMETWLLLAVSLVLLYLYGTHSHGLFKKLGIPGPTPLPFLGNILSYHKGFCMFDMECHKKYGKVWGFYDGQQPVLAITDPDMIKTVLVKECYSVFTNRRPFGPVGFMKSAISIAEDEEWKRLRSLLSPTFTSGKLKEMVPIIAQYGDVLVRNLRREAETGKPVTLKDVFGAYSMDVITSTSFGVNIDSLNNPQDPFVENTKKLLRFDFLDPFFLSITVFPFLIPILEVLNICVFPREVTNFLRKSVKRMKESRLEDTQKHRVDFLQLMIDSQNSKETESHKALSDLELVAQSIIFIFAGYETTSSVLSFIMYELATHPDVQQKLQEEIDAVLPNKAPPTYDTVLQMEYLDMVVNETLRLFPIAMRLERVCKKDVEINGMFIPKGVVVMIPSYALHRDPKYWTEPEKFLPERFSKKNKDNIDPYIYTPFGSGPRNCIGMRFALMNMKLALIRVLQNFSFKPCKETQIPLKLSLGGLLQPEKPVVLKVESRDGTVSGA
row,SMILES,AC50
1,Nc1cc([N+](=O)[O-])ccc1C(=O)O,10 µM (inconclusive)
2,C[C@]12CCC(=O)C[C@@H]1CC[C@@H]1[C@@H]2CC[C@]2(C)[C@@H](O)CC[C@@H]12 [STANOLONE],15.8 µM (inconclusive)
3,Cc1ccc(Cl)cc1N,31.6 µM (inconclusive)
4,Nc1cc(Cl)cc(Cl)c1,31.6 µM (inconclusive)
5,Cc1ccc(N)cc1[N+](=O)[O-],31.6 µM (inconclusive)
6,Cc1cc(=O)oc2cc(O)c(O)cc12 [4-METHYLESCULETIN],15.8 µM (inconclusive)
7,CC1Cc2c(COc3ccccc3)nc3c(c2CO1)CN(CCOc1ccccc1)CC3 (stereo unspecified),3.98 µM (inconclusive)
8,COCCNC(=O)[C@@]1(Cc2ccccc2)C=C[C@@H](C)N1C(C)=O,20 µM (inconclusive)
9,O=[N+]([O-])c1ccc2cn[nH]c2c1,12.6 µM (inconclusive)
10,CC1=C(/C=C/C(C)=C/C=C/C(C)=C/CO)C(C)(C)CCC1 [RETINOL],15.8 µM (inconclusive)

# Biological target: T1, Heat shock factor protein 1 (Mus musculus, UniProt P38532)
# T1 sequence (P38532 whole entry): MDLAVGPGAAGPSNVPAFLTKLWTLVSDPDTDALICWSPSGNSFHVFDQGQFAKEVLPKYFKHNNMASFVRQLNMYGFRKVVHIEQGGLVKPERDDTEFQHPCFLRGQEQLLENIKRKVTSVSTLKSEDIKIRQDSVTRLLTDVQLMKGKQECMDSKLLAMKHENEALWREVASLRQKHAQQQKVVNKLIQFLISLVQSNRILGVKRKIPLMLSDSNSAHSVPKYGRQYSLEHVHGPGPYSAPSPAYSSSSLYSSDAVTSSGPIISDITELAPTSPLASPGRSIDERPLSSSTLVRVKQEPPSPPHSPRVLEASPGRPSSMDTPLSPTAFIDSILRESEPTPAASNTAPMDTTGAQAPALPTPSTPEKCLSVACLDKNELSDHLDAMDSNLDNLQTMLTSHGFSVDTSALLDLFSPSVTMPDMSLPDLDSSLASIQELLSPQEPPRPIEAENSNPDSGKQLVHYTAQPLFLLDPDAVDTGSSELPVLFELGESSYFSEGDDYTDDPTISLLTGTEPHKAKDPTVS
# Assay: enhancement of HSF1-driven luciferase signal – cell-based, NIH3T3, luminescence, dose retest, confirmation (AID 435004);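 note: stress induced by proteasome inhibitor MG132 added 30 min after compound; luciferase reporter driven by HSF1 response element in NIH3T3 cells; actives raise luminescence as potentiators of the MG132 stress response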
# Type: functional
# Details: not given
row,SMILES,EC50
1,Cc1cc(OCC(=O)N(Cc2ccco2)C2CCS(=O)(=O)C2)cc(C)c1Cl (stereo unspecified),> 260 µM (inactive)
2,Fc1ccc(Sc2ccccc2CNC2=NCCN2)cc1,> 260 µM (inactive)
3,Nc1nnnn1CC(=O)N/N=C/c1ccccn1,> 260 µM (inactive)
4,COCCn1c(C)cc(C(=O)COC(=O)c2ccc(-n3nc(C)cc3C)cc2)c1C,> 260 µM (inactive)
5,O=C(COC(=O)c1ccc(S(=O)(=O)NCc2ccco2)cc1)Nc1ccccc1OC(F)F,> 260 µM (inactive)
6,Cc1ccc(C)c(S(=O)(=O)N2CCCCC2CCNC(=O)C(=O)NCCc2ccco2)c1 (stereo unspecified),> 260 µM (inactive)
7,O=C(COC(=O)/C=C/c1cccc([N+](=O)[O-])c1)NCc1ccco1,> 260 µM (inactive)
8,CN(Cc1cccc2cnccc12)C(=O)c1cc(COc2ccc(F)cc2F)on1,> 260 µM (inactive)
9,CC1(C)CC(CCN)(Cc2ccccc2Cl)CCO1 (stereo unspecified),> 260 µM (inactive)
10,COc1cc(/C=N/Nc2snc(SC)c2C#N)ccc1O,> 260 µM (inactive)

# Test system: not listed separately
# Assay: Trypanosoma cruzi growth suppression in host cells – NIH3T3 host cells, beta-gal luminescence, confirmation (AID 2044);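 note: intracellular parasites grown in NIH/3T3 mouse fibroblasts as host cells; luminescent beta-galactosidase reporter signal from transgenic T. cruzi replicating inside host cells; inhibitors lower the luminescence signal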
# Type: functional, cell-based
# Details: not given
row,SMILES,EC50
1,Fc1ccc(Sc2ccccc2CNC2=NCCN2)cc1,1.49 µM (active)

# Biological target: T2, Calpain-2 catalytic subunit (Sus scrofa, UniProt P43367)
# T2 sequence (P43367 whole entry): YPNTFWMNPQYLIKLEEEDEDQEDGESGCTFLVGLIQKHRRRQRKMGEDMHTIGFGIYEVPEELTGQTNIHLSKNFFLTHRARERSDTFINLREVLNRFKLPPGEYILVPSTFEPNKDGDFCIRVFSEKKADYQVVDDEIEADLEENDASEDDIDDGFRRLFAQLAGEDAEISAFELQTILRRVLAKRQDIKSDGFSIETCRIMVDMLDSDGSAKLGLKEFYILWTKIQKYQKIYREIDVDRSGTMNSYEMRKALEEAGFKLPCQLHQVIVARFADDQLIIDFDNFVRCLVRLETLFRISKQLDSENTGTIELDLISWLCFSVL
# Assay: m-calpain protease blockers, concentration series – biochemical, fluorogenic peptide substrate, dose response (AID 1420)
# Type: functional
# Details: not given
row,SMILES,IC50
1,CCC(C(=O)NC1CCCC1)N(Cc1ccco1)C(=O)Cn1nnc(-c2ccc(C)cc2)n1 (stereo unspecified),16.3 µM (not active)
2,CCOC(=O)CCNC(=O)Nc1ccc2nc(C)n(Cc3cccc(Cl)c3)c(=O)c2c1,6.83 µM (not active)
3,CC(=O)Nc1cc(C(=O)N2CCN(C)CC2)ccc1S(=O)(=O)c1ccc(C)cc1,0.796 µM (not active)
4,CC(C)(C)OC(=O)NCCCCCNC(=O)c1[nH]cnc1C(=O)N[C@@H](CCCCNC(=O)OC(C)(C)C)C(=O)OC(C)(C)C,10.7 µM (not active)
5,CCN1CCN(c2cc(C)c3cc(NC(S)=NCc4cccs4)ccc3n2)CC1,10 µM (not active)
6,COc1ccc(Cn2nc(-c3ccccc3)c(N3CCCCC3)cc2=O)cc1,10.6 µM (not active)
7,CCCN(CCC)S(=O)(=O)c1ccc(NC(=O)COc2ccccc2)cc1,3.3 µM (not active)
8,O=C1c2ccccc2C(=O)N1CCc1csc(-c2cccc(Cl)c2)n1,3.44 µM (not active)
9,Cc1oc2c(c1C(=O)Nc1cccc3ccccc13)CCCC2,> 50 µM (not active)

# Biological target: Nonstructural protein 1 (Influenza A virus, UniProt Q194T2)
# Type: functional, Influenza A virus (A/California/07/2009(H1N1))
# Details: not given
# Sequence of Nonstructural protein 1 (Q194T2 whole entry): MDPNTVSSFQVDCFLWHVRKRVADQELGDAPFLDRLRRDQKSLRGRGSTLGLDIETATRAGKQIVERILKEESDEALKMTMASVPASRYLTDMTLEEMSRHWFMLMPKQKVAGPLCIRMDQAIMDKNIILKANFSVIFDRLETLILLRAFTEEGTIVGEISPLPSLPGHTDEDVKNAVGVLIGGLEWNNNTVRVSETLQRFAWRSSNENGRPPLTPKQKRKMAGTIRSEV
row,SMILES,IC50
1,CCc1nnc(N/N=C/c2cc(Br)c(O)cc2O)n1N,6.41 µM (active)

# Biological target: T3, Replicative DNA helicase DnaB (Mycobacterium tuberculosis, UniProt P9WMR3)
# T3 sequence (P9WMR3 whole entry): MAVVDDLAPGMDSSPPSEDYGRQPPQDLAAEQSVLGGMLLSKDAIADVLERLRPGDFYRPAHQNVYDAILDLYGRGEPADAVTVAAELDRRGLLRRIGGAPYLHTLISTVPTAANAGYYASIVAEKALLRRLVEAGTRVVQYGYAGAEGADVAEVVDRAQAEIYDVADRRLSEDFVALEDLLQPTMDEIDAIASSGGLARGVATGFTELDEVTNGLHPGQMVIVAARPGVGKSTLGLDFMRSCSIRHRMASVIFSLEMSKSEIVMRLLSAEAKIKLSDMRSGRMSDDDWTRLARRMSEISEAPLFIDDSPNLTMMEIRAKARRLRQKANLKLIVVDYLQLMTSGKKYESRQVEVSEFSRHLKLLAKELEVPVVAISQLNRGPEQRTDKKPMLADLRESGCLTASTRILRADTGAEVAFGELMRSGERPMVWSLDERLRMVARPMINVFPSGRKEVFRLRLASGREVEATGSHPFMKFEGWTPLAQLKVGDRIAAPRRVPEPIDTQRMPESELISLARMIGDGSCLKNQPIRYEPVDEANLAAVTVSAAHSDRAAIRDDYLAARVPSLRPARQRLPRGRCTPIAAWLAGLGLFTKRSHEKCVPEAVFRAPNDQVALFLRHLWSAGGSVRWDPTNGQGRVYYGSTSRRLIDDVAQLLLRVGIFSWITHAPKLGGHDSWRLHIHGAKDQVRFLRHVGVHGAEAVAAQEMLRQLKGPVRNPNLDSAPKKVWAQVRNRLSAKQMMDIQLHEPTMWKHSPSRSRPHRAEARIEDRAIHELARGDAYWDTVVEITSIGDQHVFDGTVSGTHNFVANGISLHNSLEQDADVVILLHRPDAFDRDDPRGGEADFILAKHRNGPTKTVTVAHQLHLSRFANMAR
# Assay: DnaB intein splicing inhibitors, dose response, biochemical, cell-free fluorescence (AID 449749)
# Type: functional
# Details: not given
row,SMILES,AC50
1,CCc1nnc(N/N=C/c2cc(Br)c(O)cc2O)n1N,> 380 µM (inactive)

# Biological target: T4, Microphthalmia-associated transcription factor (Homo sapiens, UniProt O75030)
# T4 sequence (O75030 whole entry): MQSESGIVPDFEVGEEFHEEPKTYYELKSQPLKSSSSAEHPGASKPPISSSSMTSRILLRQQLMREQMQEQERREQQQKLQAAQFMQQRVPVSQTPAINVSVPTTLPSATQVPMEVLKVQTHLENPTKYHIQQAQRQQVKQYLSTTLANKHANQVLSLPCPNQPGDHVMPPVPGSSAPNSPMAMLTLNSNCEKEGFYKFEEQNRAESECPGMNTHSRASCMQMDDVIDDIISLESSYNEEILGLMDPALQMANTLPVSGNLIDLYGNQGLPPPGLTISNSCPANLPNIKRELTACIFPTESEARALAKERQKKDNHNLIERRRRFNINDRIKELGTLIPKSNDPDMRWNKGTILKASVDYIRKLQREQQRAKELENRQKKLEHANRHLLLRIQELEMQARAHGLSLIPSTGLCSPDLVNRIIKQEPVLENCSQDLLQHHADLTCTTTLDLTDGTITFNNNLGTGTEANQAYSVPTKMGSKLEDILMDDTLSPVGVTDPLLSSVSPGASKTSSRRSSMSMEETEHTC
# Assay: reducers of TRPM1 reporter luminescence, concentration series – cell-based, SK-MEL-5, cherry-picked, set 3, MITF inhibitor project, dose response (AID 493073);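 note: SK-MEL-5 melanoma cells with luciferase driven by the MITF target TRPM1 promoter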
# Type: functional
# Details: not given
row,SMILES,AC50
1,CC(C)(C)C(=O)Cn1ncc(Cl)c(Cl)c1=O,10.4 µM (active)

# Biological target: T5, Protein RecA (Mycobacterium tuberculosis, UniProt P9WHJ3)
# T5 sequence (P9WHJ3 whole entry): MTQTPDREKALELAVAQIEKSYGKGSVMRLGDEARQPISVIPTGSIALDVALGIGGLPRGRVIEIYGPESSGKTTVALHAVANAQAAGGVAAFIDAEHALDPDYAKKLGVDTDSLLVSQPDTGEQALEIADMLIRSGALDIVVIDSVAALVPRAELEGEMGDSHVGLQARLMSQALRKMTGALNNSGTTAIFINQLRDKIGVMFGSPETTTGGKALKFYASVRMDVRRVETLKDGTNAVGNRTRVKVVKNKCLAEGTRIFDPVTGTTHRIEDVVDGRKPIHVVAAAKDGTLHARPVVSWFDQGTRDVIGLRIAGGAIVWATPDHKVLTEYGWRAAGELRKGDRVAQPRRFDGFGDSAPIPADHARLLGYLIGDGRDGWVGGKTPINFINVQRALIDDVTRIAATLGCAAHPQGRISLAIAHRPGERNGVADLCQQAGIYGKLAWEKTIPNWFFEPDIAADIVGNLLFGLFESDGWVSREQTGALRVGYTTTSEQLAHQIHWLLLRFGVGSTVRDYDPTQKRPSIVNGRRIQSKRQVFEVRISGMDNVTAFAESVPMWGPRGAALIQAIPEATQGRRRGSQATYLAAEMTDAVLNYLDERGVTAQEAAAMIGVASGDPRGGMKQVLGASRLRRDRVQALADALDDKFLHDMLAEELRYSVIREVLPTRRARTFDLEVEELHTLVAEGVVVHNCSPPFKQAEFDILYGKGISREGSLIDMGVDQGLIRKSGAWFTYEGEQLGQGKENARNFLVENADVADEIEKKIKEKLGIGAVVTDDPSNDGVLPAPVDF
# Assay: Fluorescence Cell-Free Homogeneous Dose Retest to Identify Inhibitors of RecA-Intein Splicing Activity. [Related pubchem assays (depositor defined):AID2097, AID2223, AID489010, AID492950]
# Type: functional
# Details: not given
row,SMILES,EC50
1,CCc1nnc(N/N=C/c2cc(Br)c(O)cc2O)n1N,9.31 µM (active)

# Test system: not listed separately
# Assay: NIH3T3 cell viability loss – ATP luminescence, mouse fibroblasts, counter-screen, dose response (AID 2010);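 note: cells exposed to compound for about 90 hours before reading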
# Type: functional, cell-based
# Details: not given
row,SMILES,EC50
1,Fc1ccc(Sc2ccccc2CNC2=NCCN2)cc1,> 60 µM (not active)

# Biological target: T6, Rac GTPase-activating protein 1 (Homo sapiens, UniProt Q9H0H5)
# T6 sequence (Q9H0H5 whole entry): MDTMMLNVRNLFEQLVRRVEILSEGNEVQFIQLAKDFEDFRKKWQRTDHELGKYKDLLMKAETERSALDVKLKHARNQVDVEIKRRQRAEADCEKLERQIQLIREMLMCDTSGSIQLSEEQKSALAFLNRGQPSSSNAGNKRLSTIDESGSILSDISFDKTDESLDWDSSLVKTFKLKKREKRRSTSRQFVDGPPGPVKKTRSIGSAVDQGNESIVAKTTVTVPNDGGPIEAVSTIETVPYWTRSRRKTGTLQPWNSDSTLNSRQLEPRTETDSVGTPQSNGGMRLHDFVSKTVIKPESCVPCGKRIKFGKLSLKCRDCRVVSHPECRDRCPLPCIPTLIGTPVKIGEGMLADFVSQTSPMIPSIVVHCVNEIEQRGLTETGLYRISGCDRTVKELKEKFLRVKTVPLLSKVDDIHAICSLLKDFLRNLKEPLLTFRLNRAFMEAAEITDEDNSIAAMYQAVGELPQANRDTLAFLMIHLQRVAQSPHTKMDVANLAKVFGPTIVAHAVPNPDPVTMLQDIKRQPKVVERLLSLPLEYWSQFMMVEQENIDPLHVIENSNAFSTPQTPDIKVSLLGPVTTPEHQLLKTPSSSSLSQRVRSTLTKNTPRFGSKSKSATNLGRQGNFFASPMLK
# Assay: blockers of MgcRacGAP-driven Rac1 GTP hydrolysis – biochemical, ADP Hunter fluorescence, primary and confirmatory, confirmation (AID 624330)
# Type: functional
# Details: not given
row,SMILES,IC50
1,CCc1nnc(N/N=C/c2cc(Br)c(O)cc2O)n1N,66.2 µM (active)
